Structures are written as SMILES. Structures can show the parent of a compound that is named as a salt. Where only a bound is given, the exact number is not on record here.

For series [1], the target named is T1, Aurora kinase B (Homo sapiens, UniProt Q96GD4). The experiment in a line: Inhibition of aurora B in human SW620 cells assessed as inhibition of histone H3 phosphorylation. The class given is cell-based, SW-620.
Series [2] has as its target T1, Aurora kinase B. The experiment in a line: Inhibition of aurora B kinase.
The target in series [3] is T2, Aurora kinase A (Homo sapiens, UniProt O14965).
T2 sequence (O14965 whole entry): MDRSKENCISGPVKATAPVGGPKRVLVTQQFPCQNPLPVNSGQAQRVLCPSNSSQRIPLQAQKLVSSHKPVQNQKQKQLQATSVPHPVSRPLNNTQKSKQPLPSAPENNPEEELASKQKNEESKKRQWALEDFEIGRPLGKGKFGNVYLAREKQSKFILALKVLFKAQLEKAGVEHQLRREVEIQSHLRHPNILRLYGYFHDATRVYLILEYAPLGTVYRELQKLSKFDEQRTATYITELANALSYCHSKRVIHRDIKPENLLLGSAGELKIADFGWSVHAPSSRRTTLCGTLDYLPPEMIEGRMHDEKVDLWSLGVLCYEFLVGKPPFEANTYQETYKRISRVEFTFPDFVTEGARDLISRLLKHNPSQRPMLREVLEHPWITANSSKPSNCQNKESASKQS

The target of series [4] is Glycogen synthase kinase-3 beta (Homo sapiens, UniProt P49841). The series is described as follows: Inhibition of Gsk3beta.
For series [5], the target named is Proto-oncogene tyrosine-protein kinase Src (Homo sapiens, UniProt P12931). The experiment in a line: Inhibition of Src.
Series [6] concerns COLO 205. The series is described as follows: Antiproliferative activity against human COLO205 cells assessed as inhibition of thymidine uptake after 96 hrs. The settings on record: COLO 205, 96 h. The class given is functional, cell-based.
The test system of series [7] is HCT-116. The experiment in a line: Antiproliferative activity against human HCT116 cells assessed as BrdU incorporation after 72 hrs. The class given is functional, cell-based. The settings on record: HCT-116, 72 h. (Dividing cells build labelled thymidine or BrdU into new DNA.)
The nature of series [8]: Aqueous solubility at pH 7.4. The series is classed as physicochemical.
Series [9] can be described thus: Half life in iv dosed rat. The class given is ADME, organism-based. The following applies: in vivo.
Series [10] is described as follows: Bioavailability in […] rat. The class given is ADME, organism-based. The following applies: in vivo.
The nature of series [11]: Toxicity in po dosed rat assessed at maximum tolerated dose after 2 weeks. The class given is organism-based. The following applies: in vivo.
The species named for series [12] is Rattus norvegicus. The series is described as follows: Antitumor activity in rat assessed as inhibition of tumor volume. The class given is functional.
Series [13] in a line: Volume of distribution at steady state in iv dosed rat. The class given is ADME, organism-based. The following applies: in vivo, read-out: Vdss.
A short description of series [14]: Clearance in iv dosed rat. The series is classed as ADME, organism-based. The settings on record: in vivo.
For series [15], the target named is Tyrosine-protein kinase Lck (Homo sapiens, UniProt P06239). The experiment in a line: Inhibition of Lck.
Series [16] concerns the target T3, Aurora kinase C (Homo sapiens, UniProt Q9UQB9).
T3 sequence (Q9UQB9 whole entry): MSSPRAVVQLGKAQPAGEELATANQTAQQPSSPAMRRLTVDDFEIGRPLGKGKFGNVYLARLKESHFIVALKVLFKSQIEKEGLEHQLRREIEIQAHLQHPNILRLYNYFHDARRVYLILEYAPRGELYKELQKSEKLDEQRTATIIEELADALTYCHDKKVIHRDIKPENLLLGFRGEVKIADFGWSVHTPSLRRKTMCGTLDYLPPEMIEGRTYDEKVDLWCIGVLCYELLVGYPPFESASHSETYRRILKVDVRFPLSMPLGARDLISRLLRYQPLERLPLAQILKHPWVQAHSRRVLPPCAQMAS
The series is described as follows: Inhibition of aurora C kinase.

For series [17], the system named is A2780. The experiment in a line: Antiproliferative activity against human A2780 cells assessed as accumulation of 4N DNA. The series is classed as functional, cell-based.
A short description of series [18]: Clearance in iv infused tumor bearing mouse. The series is classed as ADME, organism-based. The following applies: in vivo.
Series [19] is described as follows: Volume of distribution in iv infused tumor bearing mouse. The series is classed as ADME, organism-based. The settings on record: in vivo.
Series [20] can be described thus: Elimination half life in iv infused tumor bearing mouse. The class given is ADME, organism-based. The following applies: in vivo, read-out: beta t1/2 (converted).
Series [21] in a line: Drug level in tumor bearing mouse plasma at 30 mg/kg after 24 hrs. The class given is ADME, organism-based. Details: dose 30 mg/kg. The settings on record: read-out: Activity.
Series [22] in a line: Drug level in tumor bearing mouse tumor at 30 mg/kg after 24 hrs. The class given is ADME, organism-based, Neoplasm. Details: dose 30 mg/kg. The following applies: read-out: Activity.
Series [23] concerns Homo sapiens. The series is described as follows: Drug elimination in human patient after 5 days of iv infusion. The series is classed as ADME, organism-based. The settings on record: in vivo, 120 h.

T1 sequence (Q96GD4 whole entry): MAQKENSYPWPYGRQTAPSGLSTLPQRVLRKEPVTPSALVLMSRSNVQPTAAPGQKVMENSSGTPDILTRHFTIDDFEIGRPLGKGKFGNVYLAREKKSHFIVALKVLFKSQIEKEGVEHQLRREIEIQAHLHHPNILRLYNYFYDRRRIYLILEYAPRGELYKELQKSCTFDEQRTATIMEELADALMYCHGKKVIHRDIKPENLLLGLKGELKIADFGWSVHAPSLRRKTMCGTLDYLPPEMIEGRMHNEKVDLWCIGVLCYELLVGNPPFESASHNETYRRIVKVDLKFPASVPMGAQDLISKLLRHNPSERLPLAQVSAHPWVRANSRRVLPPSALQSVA
Sequence of Glycogen synthase kinase-3 beta (P49841 whole entry): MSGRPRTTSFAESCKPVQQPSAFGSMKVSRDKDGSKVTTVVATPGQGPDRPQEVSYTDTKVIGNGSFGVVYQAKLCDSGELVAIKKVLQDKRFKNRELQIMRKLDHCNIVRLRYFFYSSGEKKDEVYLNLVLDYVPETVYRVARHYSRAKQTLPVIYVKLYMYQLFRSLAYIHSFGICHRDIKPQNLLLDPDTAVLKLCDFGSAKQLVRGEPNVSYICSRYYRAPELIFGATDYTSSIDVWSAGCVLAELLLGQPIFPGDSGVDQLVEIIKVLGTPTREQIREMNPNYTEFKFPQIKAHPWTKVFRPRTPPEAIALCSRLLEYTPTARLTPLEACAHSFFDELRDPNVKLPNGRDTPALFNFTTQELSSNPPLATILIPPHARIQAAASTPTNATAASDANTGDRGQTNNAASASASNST
Sequence of Proto-oncogene tyrosine-protein kinase Src (P12931 2-536 limits assumed): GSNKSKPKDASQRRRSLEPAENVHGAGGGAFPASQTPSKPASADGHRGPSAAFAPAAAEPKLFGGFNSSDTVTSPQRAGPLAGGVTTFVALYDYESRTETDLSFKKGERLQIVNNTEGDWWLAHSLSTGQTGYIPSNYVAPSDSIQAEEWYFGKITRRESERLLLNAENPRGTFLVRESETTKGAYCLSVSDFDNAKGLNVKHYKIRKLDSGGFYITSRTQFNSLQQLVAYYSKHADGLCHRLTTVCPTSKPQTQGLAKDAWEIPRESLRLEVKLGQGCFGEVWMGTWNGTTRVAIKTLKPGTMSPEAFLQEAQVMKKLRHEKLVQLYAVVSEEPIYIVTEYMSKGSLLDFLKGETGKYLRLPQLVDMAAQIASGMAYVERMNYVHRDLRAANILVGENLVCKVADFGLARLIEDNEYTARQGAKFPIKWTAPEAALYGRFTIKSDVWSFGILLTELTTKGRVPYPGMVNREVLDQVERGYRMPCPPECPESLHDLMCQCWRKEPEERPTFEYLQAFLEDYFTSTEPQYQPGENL
Sequence of Tyrosine-protein kinase Lck (P06239 whole entry): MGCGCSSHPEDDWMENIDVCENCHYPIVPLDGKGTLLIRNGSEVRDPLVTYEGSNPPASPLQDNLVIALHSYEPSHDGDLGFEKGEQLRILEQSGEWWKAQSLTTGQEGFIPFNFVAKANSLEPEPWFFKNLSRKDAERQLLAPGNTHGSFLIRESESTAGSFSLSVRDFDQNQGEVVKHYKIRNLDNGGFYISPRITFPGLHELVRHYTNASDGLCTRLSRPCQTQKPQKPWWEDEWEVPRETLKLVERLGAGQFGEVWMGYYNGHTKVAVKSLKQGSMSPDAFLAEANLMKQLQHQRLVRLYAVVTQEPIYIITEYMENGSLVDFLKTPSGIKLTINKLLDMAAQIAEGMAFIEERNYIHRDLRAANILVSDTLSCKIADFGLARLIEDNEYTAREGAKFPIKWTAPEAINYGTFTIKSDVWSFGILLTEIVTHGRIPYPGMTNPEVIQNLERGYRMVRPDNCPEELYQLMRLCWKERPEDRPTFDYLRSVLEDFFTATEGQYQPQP

For `CCN(CCO)CCCOc1cc2ncnc(Nc3cc(CC(=O)Nc4cccc(F)c4F)[nH]n3)c2cc1OC`, the half-maximal inhibitory concentration (IC50) (in general, the midpoint of a concentration-inhibition curve) in series [1] was 45 nM; in [2], < 1 nM; in [3], 360 nM.
In the case of `CCN(CCO)CCCOc1cc2ncnc(Nc3cc(CC(=O)Nc4cccc(F)c4)[nH]n3)c2cc1OC`, the IC50 in series [1] is 270 nM; in [2] it was 1 nM; in series [3], 190 nM.
As to `CCN(CCO)CCCOc1ccc2c(Nc3cc(CC(=O)Nc4cccc(F)c4F)[nH]n3)ncnc2c1`, the IC50 in [2] turned out to be 7.5 nM; in series [3] it was 800 nM.
With `COc1cc2c(Nc3cc(CC(=O)Nc4cccc(F)c4F)[nH]n3)ncnc2cc1OCCCN(CCO)CC(C)C`, the IC50 in series [1] is < 1 nM; in [2] it was < 1 nM; in series [3], 18 nM.
In the case of `CCCN(CCO)CCCOc1cc2ncnc(Nc3cc(CC(=O)Nc4cccc(F)c4)[nH]n3)c2cc1OC`, the values for the IC50 in series [1], in series [2] and in series [3] were 290 nM, 2 nM and 220 nM, respectively.
On to `Cc1cc(Nc2nc(-c3ccccc3)nc3ccccc23)n[nH]1`, for which the Ki (in general, the dissociation constant of the complex between target and ligand, obtained from inhibition or displacement) in series [4] came to 22 nM; in series [5] it was 81 nM; in series [3], 58 nM. Besides, the concentration for half-maximal inhibition (IC50) in series [6] is 1400 nM.
Compound `COc1cc2c(Nc3cnc(NC(=O)c4ccccc4)nc3)ncnc2cc1OCCCN1CCOCC1` had a half-maximal inhibitory concentration (IC50) in series [2] of 1 nM.
`O=C(Nc1cccc(C(F)(F)F)c1)Nc1ncc(CCNc2ncnc3ccsc23)s1`: the EC50 (commonly the midpoint of the concentration-response curve) in series [7] came out at 13 nM.
Turning to `O=C(Nc1ccccc1)Nc1ncc(CCNc2ncnc3ccsc23)s1`, the EC50 in series [7] stood at 45 nM.
With `COc1cc2c(Nc3ncc(C(=O)Nc4ccccc4)s3)ncnc2cc1OCCCN1CCOCC1`, the figures for the IC50 in [2] and in series [3] were 42 nM and 4 nM, respectively.
With `CCC(=O)Nc1ccc(Sc2nc(Nc3cc(C)n[nH]3)cc(N3CCOCC3)n2)cc1`, the values for the IC50 in series [6], in [2] and in series [3] were 135 nM, 14 nM and 1.7 nM, respectively. Also, the solubility – broadly, the dissolved amount per volume that the medium holds – in [8] is 5.4 µM.
Consider `CCC(=O)Nc1ccc(Sc2nc(Nc3cc(C)n[nH]3)cc(N3CCNCC3)n2)cc1`, for which the IC50 in series [6] was determined as 79 nM; in series [2] it was 18 nM; in [3], 3.7 nM. Further, the solubility in series [8] came to 296 µM.
The matching figures for `CCC(=O)Nc1ccc(Sc2nc(Nc3cc(C)n[nH]3)cc(N3CCN(C(C)(C)C)CC3)n2)cc1`: 2 nM, 11 nM, 1.3 nM and 221 µM.
As for `CC(C)(C)c1ccc(C(=O)Nc2n[nH]c3c2CN(C(=O)Cc2cccs2)C3)cc1`, the IC50 in series [7] came out at 2000 nM.
Regarding `COc1cc2c(Nc3nc(C(=O)Nc4ccccc4)cs3)ncnc2cc1OCCCN1CCOCC1`, the IC50 in series [2] was found to be 530 nM; in series [3], 182 nM.
`CCC(=O)Nc1ccc(Sc2nc(Nc3cc(C)[nH]n3)cc(N3CCN(C)CC3)n2)cc1`: the half-maximal inhibitory concentration (IC50) in [6] turned out to be 24 nM; in series [2] it was 20 nM; in series [3], 1.6 nM. The solubility in series [8] was 63.4 µM.
With `CC(=O)Nc1ccc(Sc2nc(Nc3cc(C)n[nH]3)c3ccccc3n2)cc1`, the half-life in series [9] was 1 h. Besides, in series [10], the bioavailability (usually dose-corrected exposure relative to a reference, in per cent) was found to be 44%. In series [11], the maximum tolerated dose (MTD) (commonly the largest dose that counted as tolerated) at 336 h was found to be 300 mg/kg. In addition, the “inhibition (INH)” value in series [12] is listed as 50%. For the same compound, the inhibitory constant (Ki) in series [4] amounted to 1030 nM; in series [5], 1260 nM; in series [2] it was 27 nM; in [3], 4 nM. In series [6], the IC50 stood at 480 nM. For the same compound, in [13], the Vd came to 0.38 L/kg. For the same compound, the clearance (commonly the volume of plasma or blood freed of the substance per unit of time) in series [14] came out at 7 mL/min.
For `CCC(=O)Nc1ccc(Sc2nc(Nc3cc(C)n[nH]3)cc(N3CCCCC3)n2)cc1`, the results for the half-maximal inhibitory concentration (IC50) in series [6], in series [2] and in series [3] were 400 nM, 8 nM and 1.6 nM, respectively. The same compound gave a solubility in series [8] of 2.5 µg/mL.
The matching figures for `CCC(=O)Nc1ccc(Sc2nc(Nc3cc(C)n[nH]3)cc(N3CCN(C4CC4)CC3)n2)cc1`: 75 nM, 9.5 nM, < 1 nM and 12.8 µM.
In the case of `COc1cc2c(Nc3ccc(C(=O)Nc4ccccc4)s3)ncnc2cc1OCCCN1CCOCC1`, the results for the concentration for half-maximal inhibition (IC50) in series [2] and in series [3] were 57 nM and 11 nM, respectively.
In the case of `CCC(=O)Nc1ccc(Sc2nc(Nc3cc(C)n[nH]3)cc(N3CCN(CC)CC3)n2)cc1`, the results for the IC50 in [6], in series [2] and in series [3] were 24 nM, 25 nM and < 1 nM, respectively. This compound also yielded a solubility in series [8] of 114 µM.
Take `CN1CCN(c2ccc(C(=O)Nc3n[nH]c4c3CN(C(=O)Cc3cccs3)C4)cc2)CC1`: the IC50 in series [7] was 570 nM.
As to `COc1cc2c(Nc3ncc(CC(=O)Nc4ccccc4)s3)ncnc2cc1OCCCN1CCOCC1`, the half-maximal inhibitory concentration (IC50) in [2] and in series [3] was < 1 nM in each case.
The compound `COc1cc(Nc2ncc3c(n2)-c2ccc(Cl)cc2C(c2c(F)cccc2OC)=NC3)ccc1C(=O)O` [ALISERTIB] yielded an IC50 in series [15] of 320 nM.
In turn, `O=C(Nc1c[nH]nc1-c1nc2cc(CN3CCOCC3)ccc2[nH]1)NC1CC1` [AT-9283] returned an IC50 in [2] of 3 nM.
For `CCN(CCCOc1ccc2c(Nc3cc(CC(=O)Nc4cccc(F)c4)n[nH]3)ncnc2c1)CCOP(=O)(O)O` [BARASERTIB], the half-life in [9] is 5 h. Besides, the clearance in [14] amounted to 14 mL/min/kg.
Regarding `Cc1nc(N)sc1-c1ccnc(Nc2ccc(N3CCOCC3)cc2)n1` [CYC-116], the half-inhibitory concentration (IC50) in [16] is 65 nM.
With `CO[C@@H](C(=O)N1Cc2n[nH]c(NC(=O)c3ccc(N4CCN(C)CC4)cc3)c2C1)c1ccccc1` [DANUSERTIB], in [17], the half-maximal inhibitory concentration (IC50) came out at 28000 nM. For the same compound, the clearance in series [18] is 28.3 mL/min/kg. Moreover, the Vd in series [19] came to 2.7 L/kg. Moreover, in series [20], the half-life was 3.7 h.
Take `O=C(O)c1ccc(Nc2ncc3c(n2)-c2ccc(Cl)cc2C(c2c(F)cccc2F)=NC3)cc1` [MLN-8054]: the concentration at 24 h in series [21] was > 1000 nM; in series [22], > 2000 nM.
In the case of `O=C(Nc1cccc(Cl)c1)Nc1ncc(CCNc2ncnc3ccsc23)s1` [SNS-314 MESYLATE], the EC50 in series [7] was found to be 6 nM.
The compound `Cc1cc(Nc2cc(N3CCN(C)CC3)nc(Sc3ccc(NC(=O)C4CC4)cc3)n2)[nH]n1` [TOZASERTIB] came in with an Activity in [23] of 75%.

The values are drawn from ChEMBL document CHEMBL1154007, “Discovery and development of aurora kinase inhibitors as anticancer agents” (J Med Chem, 2009).
